What all share (assay type): cell-based
The target in one assay is T1, hP2X7 (Homo sapiens, UniProt Q99572).
T1 construct: expressed in transfected cells; host or cells: HEK293T
T1 sequence (Q99572 1-595): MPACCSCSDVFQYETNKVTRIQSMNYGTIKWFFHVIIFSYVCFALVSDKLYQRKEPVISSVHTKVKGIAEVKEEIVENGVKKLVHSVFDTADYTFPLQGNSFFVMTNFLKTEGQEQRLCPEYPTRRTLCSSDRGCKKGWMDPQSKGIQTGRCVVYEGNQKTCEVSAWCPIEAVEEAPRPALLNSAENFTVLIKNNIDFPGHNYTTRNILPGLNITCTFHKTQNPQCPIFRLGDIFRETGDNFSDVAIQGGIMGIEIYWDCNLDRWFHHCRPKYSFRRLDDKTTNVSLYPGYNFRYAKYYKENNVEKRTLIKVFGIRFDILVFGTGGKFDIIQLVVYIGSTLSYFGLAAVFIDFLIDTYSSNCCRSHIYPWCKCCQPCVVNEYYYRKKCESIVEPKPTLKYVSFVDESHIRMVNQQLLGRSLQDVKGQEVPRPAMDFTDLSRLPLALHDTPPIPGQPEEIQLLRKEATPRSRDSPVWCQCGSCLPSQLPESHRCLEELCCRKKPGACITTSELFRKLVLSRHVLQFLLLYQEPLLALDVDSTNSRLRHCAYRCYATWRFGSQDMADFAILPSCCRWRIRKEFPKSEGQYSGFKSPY
The assay can be described thus: hP2X7-NeonGreen-Calflux-nLuc BRET probe in HEK293T cells. The following applies: read-out: EC50 of activation of hP2X7 probe. From the text: (§1) Values were normalized to the maximal efficacy measured individually for each probe and represent the mean of three independent experiments.
(§2) We constructed human and murine P2X-NeonGreen-Calflux-nLuc probes wherein the DNA sequence encoding the seven human or mouse P2X subunits are individually fused in C-terminal to the calflux calcium sensor sandwiched in between the nanoluciferase and mNeonGreen (FIG. 11 left panel).

The target of another assay is T2, TRPV1 channel (Homo sapiens, UniProt Q8NER1).
T2 construct: expressed in transfected cells; host or cells: HEK293T
T2 sequence (Q8NER1 whole entry): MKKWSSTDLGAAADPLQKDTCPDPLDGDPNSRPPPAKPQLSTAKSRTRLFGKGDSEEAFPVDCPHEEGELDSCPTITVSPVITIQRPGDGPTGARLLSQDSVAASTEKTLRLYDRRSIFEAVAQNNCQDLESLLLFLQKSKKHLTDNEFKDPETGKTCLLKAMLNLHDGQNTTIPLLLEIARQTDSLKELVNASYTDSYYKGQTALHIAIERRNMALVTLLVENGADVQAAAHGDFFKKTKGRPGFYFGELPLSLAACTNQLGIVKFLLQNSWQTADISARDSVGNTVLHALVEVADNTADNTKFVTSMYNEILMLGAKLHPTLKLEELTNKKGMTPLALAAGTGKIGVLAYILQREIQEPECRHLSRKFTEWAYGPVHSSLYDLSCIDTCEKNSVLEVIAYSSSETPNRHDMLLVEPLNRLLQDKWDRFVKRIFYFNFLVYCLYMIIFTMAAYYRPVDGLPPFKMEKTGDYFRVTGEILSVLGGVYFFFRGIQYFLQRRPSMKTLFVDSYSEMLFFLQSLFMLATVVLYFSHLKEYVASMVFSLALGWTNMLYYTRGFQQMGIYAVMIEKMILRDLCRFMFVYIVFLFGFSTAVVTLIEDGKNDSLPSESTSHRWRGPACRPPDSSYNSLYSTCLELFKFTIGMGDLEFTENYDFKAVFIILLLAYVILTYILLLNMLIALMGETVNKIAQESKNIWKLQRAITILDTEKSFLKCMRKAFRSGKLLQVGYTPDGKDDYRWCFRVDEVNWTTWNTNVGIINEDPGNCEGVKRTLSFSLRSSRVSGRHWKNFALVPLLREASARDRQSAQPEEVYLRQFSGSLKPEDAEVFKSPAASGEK
The assay can be described thus: hTRPV1-nLuc-Calflux-YFP (or mNeonGreen) BRET probe in HEK293T cells. The note with it: TRPV1-nLuc-Calflux-YFP/mNeonGreen probe.

The target of another assay is T3, TRPV1 ion channel (Homo sapiens, UniProt Q8NER1).
T3 construct: expressed in transfected cells; host or cells: HEK293T
T3 sequence (Q8NER1 whole entry): as above
The assay can be described thus: mNeonGreen-Calflux-nLuc-hTRPV1 BRET biosensor in HEK293T cells. The note with it: kinetic measurement, FIG. 8A.

The target of another assay is T4, P2X2 (Rattus norvegicus, UniProt P49653).
T4 construct: expressed in transfected cells; host or cells: HEK293T
T4 sequence (P49653 1-472): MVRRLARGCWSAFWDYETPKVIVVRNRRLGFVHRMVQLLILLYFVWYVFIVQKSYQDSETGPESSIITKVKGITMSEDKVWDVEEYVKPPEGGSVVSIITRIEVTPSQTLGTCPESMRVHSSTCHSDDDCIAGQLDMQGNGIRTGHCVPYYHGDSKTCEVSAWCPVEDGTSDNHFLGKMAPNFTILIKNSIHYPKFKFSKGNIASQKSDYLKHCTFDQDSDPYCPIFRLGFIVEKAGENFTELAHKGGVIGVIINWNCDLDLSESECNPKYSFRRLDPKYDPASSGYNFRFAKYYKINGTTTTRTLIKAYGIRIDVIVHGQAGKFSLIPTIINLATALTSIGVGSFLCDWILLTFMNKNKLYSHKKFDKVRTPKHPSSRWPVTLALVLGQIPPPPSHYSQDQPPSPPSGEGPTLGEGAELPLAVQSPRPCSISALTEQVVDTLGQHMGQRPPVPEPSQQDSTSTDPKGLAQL
The assay can be described thus: rP2X2-nLuc-Calflux-YFP BRET probe in HEK293T cells. The note with it: read-out: EC50 of activation of P2X2-NLuc-CalFlux-YFP probe.

The target of a further assay is T5, hP2X2 (Homo sapiens, UniProt Q9UBL9).
T5 construct: expressed in transfected cells; host or cells: HEK293T
T5 sequence (Q9UBL9 1-471): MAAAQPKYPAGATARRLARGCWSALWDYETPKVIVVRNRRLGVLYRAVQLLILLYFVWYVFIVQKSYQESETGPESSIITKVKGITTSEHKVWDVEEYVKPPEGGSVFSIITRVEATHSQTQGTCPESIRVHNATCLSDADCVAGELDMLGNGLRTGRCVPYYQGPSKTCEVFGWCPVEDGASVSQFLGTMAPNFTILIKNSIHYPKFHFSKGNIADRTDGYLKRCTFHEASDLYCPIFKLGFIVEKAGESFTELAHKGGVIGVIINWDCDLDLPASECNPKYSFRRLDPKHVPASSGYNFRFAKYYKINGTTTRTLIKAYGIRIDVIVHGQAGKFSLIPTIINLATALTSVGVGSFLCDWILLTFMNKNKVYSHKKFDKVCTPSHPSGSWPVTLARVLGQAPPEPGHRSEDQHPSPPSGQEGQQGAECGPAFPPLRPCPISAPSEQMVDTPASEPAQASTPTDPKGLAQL
The assay can be described thus: hP2X2-NeonGreen-Calflux-nLuc BRET probe in HEK293T cells. The note with it: read-out: EC50 of activation of hP2X2 probe.
Source text: as §1, §2

The next assay deals with T6, hP2X4 (Homo sapiens, UniProt Q99571).
T6 construct: expressed in transfected cells; host or cells: HEK293T
T6 sequence (Q99571 1-388): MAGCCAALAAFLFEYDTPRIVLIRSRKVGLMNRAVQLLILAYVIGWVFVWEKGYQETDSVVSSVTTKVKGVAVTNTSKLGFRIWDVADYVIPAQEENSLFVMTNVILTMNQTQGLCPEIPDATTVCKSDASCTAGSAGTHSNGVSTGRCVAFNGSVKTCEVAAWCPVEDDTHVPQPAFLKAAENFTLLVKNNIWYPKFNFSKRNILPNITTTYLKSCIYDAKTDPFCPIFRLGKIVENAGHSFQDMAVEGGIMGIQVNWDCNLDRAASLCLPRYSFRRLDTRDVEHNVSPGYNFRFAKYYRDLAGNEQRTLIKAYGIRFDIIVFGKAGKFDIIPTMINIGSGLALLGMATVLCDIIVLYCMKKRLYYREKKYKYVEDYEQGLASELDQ
The assay can be described thus: hP2X4-NeonGreen-Calflux-nLuc BRET probe in HEK293T cells. The note with it: read-out: EC50 of activation of hP2X4 probe.
Source text: as §1, §2

A further assay addresses T7, hP2X5 (Homo sapiens, UniProt Q93086).
T7 construct: expressed in transfected cells; host or cells: HEK293T
The assay can be described thus: hP2X5-NeonGreen-Calflux-nLuc BRET probe in HEK293T cells. The note with it: read-out: EC50 of activation of hP2X5 probe.
Source text: as §1, §2

For a further assay, the target named is T8, mP2X4 (Mus musculus, UniProt Q9JJX6).
T8 construct: expressed in transfected cells; host or cells: HEK293T
T8 sequence (Q9JJX6 1-388): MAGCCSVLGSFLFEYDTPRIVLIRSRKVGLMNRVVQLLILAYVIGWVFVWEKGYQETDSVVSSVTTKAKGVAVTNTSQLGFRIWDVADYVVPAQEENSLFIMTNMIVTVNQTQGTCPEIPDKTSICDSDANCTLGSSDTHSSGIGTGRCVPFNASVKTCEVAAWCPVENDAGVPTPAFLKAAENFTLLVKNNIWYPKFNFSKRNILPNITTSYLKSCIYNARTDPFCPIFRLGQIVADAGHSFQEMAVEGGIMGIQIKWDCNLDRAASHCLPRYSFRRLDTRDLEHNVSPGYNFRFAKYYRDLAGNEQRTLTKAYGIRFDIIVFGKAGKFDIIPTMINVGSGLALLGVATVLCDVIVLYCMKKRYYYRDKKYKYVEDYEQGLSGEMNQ
The assay can be described thus: mP2X4-NeonGreen-Calflux-nLuc BRET probe in HEK293T cells. The note with it: FIG. 11.
Source text: as §1, §2

Another assay has as its target T9, GABARho1 (GABA receptor) (Homo sapiens, UniProt P24046).
T9 construct: expressed in transfected cells; host or cells: HEK cells are stated only for the free probe
The assay can be described thus: YPetCI BRET sensor inserted in GABARho1 subunit. The following applies: with or without untagged GABARho1 subunit, FIG. 13G. From the text:
FIG. 13: Biosensors allowing to track Cys-loop receptor family activity. Insertion of NG-CF-NL or NL-CF-YFP probes in the second intracellular loop of cationic receptors (A) allows to track activity of nicotinic (B) or serotonin receptors (C). A BRET probe called YPetCI was also developed to sense intracellular anionic flux (D and F). When inserted in the second intracellular loop of GABARho1 subunit this probe allows to track activity of the GABA receptor (G).
We also developed a BRET probe allowing to sense anionic flux by fusing the cDNA of a chloride sensitive variant of YFP (YFP Chlore or YPetCI) to the cDNA of nLuc (FIG. 13D). When expressed in HEK cells this probe is able to detect the anionic influx generated by VRAC channel opening following a hypotonic challenge (FIG. 13F). Based on this probe, we generated a biosensor allowing to measure the activity of the anionic GABA receptors. We inserted the cDNA of the YPetCI sensor in the second intracellular loop of the GABARho1 subunit (FIG. 13E).

T9 sequence (P24046 22-479): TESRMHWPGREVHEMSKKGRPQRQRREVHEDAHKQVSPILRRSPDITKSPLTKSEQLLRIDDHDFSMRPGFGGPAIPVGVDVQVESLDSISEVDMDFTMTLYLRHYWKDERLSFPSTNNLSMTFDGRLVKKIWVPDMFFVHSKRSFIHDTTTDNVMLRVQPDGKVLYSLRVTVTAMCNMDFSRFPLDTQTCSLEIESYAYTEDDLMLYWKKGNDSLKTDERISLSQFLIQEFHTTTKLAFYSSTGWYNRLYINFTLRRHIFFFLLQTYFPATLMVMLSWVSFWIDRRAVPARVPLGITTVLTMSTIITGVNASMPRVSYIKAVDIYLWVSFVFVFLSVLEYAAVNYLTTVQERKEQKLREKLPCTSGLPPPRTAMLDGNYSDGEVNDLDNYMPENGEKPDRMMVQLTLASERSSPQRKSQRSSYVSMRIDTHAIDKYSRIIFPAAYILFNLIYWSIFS
T7 sequence (Q93086 whole entry): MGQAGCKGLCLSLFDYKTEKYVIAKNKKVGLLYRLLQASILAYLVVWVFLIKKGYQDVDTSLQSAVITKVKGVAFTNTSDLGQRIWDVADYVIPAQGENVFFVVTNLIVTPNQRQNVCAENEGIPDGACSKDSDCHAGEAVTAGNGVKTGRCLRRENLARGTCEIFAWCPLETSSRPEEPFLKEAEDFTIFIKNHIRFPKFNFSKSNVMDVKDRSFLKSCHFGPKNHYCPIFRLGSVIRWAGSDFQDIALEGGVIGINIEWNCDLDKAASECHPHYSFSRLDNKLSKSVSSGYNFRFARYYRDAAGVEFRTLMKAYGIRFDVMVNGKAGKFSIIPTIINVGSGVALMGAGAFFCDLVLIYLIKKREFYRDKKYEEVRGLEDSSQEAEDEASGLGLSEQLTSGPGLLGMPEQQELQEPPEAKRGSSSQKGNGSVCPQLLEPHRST

For the compound BzATP, the EC50 on hP2X7 worked out at 49 µM.

Consider `Nc1ncnc2c1ncn2[C@@H]1O[C@H](COP(=O)(O)OP(=O)(O)OP(=O)(O)O)[C@@H](O)[C@H]1O` [ATP], for which the “change of BRET signal on stimulation” value at TRPV1 channel is “does not respond”. Further, the “change of basal BRET after exposure” value at TRPV1 ion channel is “only faintly and transiently increased”. Moreover, the concentration for a half-maximal effect (EC50) at P2X2 worked out at 0.888 ± 0.274 µM; on hP2X2, 1.63 µM; at hP2X4, 0.49 µM; on hP2X5, 0.48 µM. For the same compound, the “modulation of basal BRET signal” value at mP2X4 is listed as “modulated in a dose-dependent manner”.

On to `NCCCC(=O)O` [GABA, γ-aminobutyric acid], for which the “modulation of BRET signal” value at GABARho1 (GABA receptor) is “modulated”.

(Values after patent US20230160909A1, “NOVEL ION CONDUCTING CHANNEL FUSION SUBUNITS AND METHODS OF USE THEREOF” (UNIVERSITE DE BORDEAUX, priority 2020, published 2023).)
